Test results reported in ChEMBL document CHEMBL1201862, “PubChem BioAssay data set” (2004).
Active and inactive are the calls of the source.

Assays:
[1] = Fluorescence-based cell-based high throughput dose response assay for inhibitors of the interaction of nucleotide-binding oligomerization domain containing 2 (NOD2) and the receptor-interacting serine-threonine kinase 2 (RIPK2).; type: functional; conditions: Homo sapiens
[2] = biological target: T1, Polyadenylate-binding protein 1 (Homo sapiens, UniProt P11940); assay: PABP1 MLLE–PAM2 binding inhibitor potency, dose response, biochemical, fluorescence polarization, FITC-PAM2 peptide (AID 602259); type: functional; conditions: read-out: IC50_Mean
[3] = biological target: Nuclear receptor subfamily 5 group A member 2 (Homo sapiens, UniProt O00482); type: functional, cell-based;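 note: HEK293T cells transfected with LRH-1 and a StAR promoter luciferase reporter; potency for inhibitors that lower LRH-1 driven reporter light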
[4] = biological target: T1, Polyadenylate-binding protein 1; assay: PABP1 MLLE–PAM2 interaction inhibitors, dose response, miRNA deadenylation inhibitor project, biochemical, fluorescence polarization, Cy5-PAM2 peptide, secondary (AID 602260); type: functional; conditions: read-out: IC50_Mean
[5] = StAR promoter reporter inhibition counter-screen, dose response, counter-screen for LRH-1 inverse agonist project, cell-based, luminescence, luciferase reporter (AID 651969); type: functional
Steroidogenic factor 1 = Steroidogenic factor 1 (Homo sapiens, UniProt Q13285); assay: Counterscreen for inverse agonists of the liver receptor homolog-1 (LRH-1; NR5A2): Luminescence-based cell-based high throughput dose response assay to identify inverse agonists of the Steroidogenic Factor 1 Nuclear Receptor (SF1; NR5A1).; type: functional
[6] = biological target: T2, Sentrin-specific protease 7 (Homo sapiens, UniProt Q9BQF6); type: functional;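 note: Luminescence-based dose-response confirmation of ultra-high-throughput screening hits, measuring inhibition of SENP7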
T2 sequence (Q9BQF6 whole entry): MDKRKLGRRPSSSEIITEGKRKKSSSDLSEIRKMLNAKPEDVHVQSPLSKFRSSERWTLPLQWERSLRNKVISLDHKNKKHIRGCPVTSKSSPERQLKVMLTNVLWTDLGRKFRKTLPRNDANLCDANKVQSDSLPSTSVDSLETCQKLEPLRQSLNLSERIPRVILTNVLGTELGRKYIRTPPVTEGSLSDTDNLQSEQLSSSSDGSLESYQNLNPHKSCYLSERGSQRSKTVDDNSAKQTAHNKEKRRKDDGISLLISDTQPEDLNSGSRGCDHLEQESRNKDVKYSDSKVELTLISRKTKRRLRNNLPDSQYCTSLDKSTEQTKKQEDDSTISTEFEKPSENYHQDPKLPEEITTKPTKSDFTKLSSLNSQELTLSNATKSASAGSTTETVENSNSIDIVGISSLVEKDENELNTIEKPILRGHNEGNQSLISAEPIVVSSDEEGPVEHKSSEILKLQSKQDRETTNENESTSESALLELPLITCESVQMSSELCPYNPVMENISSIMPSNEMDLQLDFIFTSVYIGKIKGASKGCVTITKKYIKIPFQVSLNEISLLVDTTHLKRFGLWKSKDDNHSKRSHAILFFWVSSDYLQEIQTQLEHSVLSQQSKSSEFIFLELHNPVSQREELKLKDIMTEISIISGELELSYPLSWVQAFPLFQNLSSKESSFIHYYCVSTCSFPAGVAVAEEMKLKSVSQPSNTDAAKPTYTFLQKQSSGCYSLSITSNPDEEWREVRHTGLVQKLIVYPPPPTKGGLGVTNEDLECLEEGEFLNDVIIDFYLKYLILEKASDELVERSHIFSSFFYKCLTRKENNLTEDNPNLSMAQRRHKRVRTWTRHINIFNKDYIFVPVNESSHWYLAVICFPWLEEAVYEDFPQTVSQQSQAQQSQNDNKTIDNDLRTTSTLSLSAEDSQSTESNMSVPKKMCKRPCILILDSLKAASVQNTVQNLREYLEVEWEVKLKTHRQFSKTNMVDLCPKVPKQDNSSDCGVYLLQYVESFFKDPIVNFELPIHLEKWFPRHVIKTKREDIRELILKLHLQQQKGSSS

Caspase-7 = biological target: T3, Caspase-7 (Homo sapiens, UniProt P55210); assay: human caspase-7 inhibitors, dose response, selectivity assay for caspase-6 inhibitor project, biochemical, DEVD-R110 fluorescence, cherry-pick (AID 743295)
T3 sequence (P55210 whole entry): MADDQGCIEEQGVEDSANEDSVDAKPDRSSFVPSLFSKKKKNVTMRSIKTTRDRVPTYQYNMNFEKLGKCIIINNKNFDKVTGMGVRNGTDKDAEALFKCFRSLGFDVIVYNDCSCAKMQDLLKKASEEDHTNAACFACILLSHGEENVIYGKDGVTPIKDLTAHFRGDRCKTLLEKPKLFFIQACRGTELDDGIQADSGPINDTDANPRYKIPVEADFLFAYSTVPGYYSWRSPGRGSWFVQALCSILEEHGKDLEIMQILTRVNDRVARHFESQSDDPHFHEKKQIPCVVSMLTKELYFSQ

[7] = biological target: T4, Sentrin-specific protease 8 (Homo sapiens, UniProt Q96LD8); type: functional;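 note: luminescence read-out of SENP8 inhibition, dose-response confirmation following an ultra-high-throughput screen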
T4 sequence (Q96LD8 whole entry): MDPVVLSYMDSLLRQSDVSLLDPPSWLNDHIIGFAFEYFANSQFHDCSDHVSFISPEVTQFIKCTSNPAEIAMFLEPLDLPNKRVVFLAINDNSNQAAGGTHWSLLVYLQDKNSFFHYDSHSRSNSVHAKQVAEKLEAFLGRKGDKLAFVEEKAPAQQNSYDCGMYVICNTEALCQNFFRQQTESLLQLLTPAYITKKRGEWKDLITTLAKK

Caspase-6 = biological target: T5, Caspase-6 (Homo sapiens, UniProt P55212); assay: human caspase-6 inhibitors, dose response, biochemical, VEID-R110 fluorescence, cherry-pick (AID 720632)
T5 sequence (P55212 whole entry): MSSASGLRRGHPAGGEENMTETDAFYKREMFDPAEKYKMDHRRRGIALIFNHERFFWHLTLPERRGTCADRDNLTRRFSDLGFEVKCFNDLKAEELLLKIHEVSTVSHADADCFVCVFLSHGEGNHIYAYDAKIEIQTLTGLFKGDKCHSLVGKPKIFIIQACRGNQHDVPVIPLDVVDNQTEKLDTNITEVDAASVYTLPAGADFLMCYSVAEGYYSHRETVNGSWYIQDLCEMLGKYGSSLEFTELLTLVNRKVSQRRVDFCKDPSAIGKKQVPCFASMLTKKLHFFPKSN

[8] = biological target: Heat shock protein HSP 90-alpha (Homo sapiens, UniProt P07900); type: functional, organism-based
[9] = biological target: T6, Sentrin-specific protease 6 (Homo sapiens, UniProt Q9GZR1); type: functional;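 note: Luminescence-based dose-response confirmatory assay of SENP6 inhibition, following up an ultra-high-throughput screen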
T6 sequence (Q9GZR1 whole entry): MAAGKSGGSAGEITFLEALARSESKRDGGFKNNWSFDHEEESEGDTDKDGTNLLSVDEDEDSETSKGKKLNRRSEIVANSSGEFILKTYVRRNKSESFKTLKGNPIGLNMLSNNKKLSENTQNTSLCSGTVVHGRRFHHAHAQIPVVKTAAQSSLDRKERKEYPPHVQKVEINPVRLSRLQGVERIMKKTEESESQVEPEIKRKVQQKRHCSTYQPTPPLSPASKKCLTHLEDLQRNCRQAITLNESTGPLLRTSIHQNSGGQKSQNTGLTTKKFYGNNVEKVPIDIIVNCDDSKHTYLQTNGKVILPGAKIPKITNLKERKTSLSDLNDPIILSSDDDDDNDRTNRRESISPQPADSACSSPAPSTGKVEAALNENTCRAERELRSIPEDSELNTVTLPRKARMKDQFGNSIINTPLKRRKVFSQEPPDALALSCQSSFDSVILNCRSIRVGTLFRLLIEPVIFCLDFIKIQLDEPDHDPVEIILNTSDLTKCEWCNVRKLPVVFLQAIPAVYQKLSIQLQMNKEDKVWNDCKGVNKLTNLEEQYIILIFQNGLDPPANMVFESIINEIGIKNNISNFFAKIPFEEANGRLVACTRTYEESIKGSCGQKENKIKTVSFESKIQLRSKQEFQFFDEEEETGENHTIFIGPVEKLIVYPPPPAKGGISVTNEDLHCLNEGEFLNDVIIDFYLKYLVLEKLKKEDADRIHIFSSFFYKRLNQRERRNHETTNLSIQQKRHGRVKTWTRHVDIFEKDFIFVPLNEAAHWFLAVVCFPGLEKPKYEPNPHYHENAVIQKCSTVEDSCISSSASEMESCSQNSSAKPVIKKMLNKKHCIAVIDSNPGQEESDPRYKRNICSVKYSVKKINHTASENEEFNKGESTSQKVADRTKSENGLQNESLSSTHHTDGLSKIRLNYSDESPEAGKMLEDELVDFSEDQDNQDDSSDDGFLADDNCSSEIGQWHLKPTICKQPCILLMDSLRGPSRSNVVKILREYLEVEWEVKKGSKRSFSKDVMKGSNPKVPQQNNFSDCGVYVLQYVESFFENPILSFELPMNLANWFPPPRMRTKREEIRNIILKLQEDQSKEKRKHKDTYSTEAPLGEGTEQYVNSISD

Caspase-3 = biological target: T7, Caspase-3 (Homo sapiens, UniProt P42574); type: functional;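 note: Dose-response selectivity test against caspase-3 for candidate inhibitors of sentrin-specific proteases (SENPs)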
T7 sequence (P42574 whole entry): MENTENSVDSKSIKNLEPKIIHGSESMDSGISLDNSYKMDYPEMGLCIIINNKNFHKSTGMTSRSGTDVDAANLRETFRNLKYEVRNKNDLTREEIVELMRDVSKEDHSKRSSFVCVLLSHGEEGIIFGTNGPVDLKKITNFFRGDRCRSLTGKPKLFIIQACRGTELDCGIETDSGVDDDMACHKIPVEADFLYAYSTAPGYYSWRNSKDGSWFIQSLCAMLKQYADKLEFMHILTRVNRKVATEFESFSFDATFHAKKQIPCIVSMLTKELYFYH

Caspase-9 = Caspase-9 (Homo sapiens, UniProt P55211); assay: caspase-9 enzyme inhibition, dose response, selectivity assay for caspase-6 inhibitor project, biochemical, fluorescence, plate reader, cherry-picked samples (AID 743293)
[10] = biological target: T8, Mitochondrial peptide methionine sulfoxide reductase (Bos taurus, UniProt P54149); assay: Absorbance-based biochemical high throughput dose response assay for activators of Methionine sulfoxide reductase A (MsrA).; type: functional
Caspase-8 = Caspase-8 (Homo sapiens, UniProt Q14790); assay: caspase-8 inhibition counter-screen, dose response, selectivity assay for caspase-6 inhibitor project, biochemical, Z-IETD-R110 fluorescence, cherry-picked samples (AID 743294)
[11] = biological target: T9, ATP-dependent translocase ABCB1 (Homo sapiens, UniProt P08183); assay: ABCG2 efflux pump inhibitor potency, dose response, Ig-MXP3 cells, JC-1, flow cytometry, set 2 (AID 504566); type: functional; conditions: read-out: EC50_MICROM_;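 note: flow cytometry median green fluorescence of retained JC-1 dye; potency of efflux pump inhibition measured as rising substrate retention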
[12] = biological target: T9, ATP-dependent translocase ABCB1; assay: ABCB1 efflux inhibitor potency, dose response, Jurkat-DNR cells, JC-1, flow cytometry, set 2 (AID 504569); type: functional; conditions: read-out: EC50_MICROM_;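 note: potency of pump inhibitors that raise cellular JC-1 green fluorescence up to the nicardipine level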
[13] = biological target: T8, Mitochondrial peptide methionine sulfoxide reductase; type: functional
[14] = enhancers of respiration in Yfh1-depleted yeast, dose response, Friedreich's ataxia, plus single-dose screen (AID 1465); type: functional;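 note: yeast depleted of Yfh1p frataxin homolog grown on glycerol needing respiration; WST-1 tetrazolium dye reduction as measure of cellular dehydrogenase metabolic activity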
Vero [15] = assay: cells; type: functional, Chlorocebus sabaeus
[16] = cytotoxicity in KRAS-transformed pancreatic duct cells, primary screen, cell-based, fluorescence, HTS (AID 431); type: functional; conditions: Homo sapiens;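 note: cell line used: HPDE-C7K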
[17] = cytotoxicity in HPDE-C7 cells, cell-based, fluorescence, HTS (AID 430); type: functional; conditions: Homo sapiens
[18] = biological target: Aryl hydrocarbon receptor (Homo sapiens, UniProt P35869); conditions: Potency;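 note: confirmatory quantitative high-throughput screen measuring activation of the AhR signaling pathway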
H9c2 = assay: cells; type: functional, cell-based; conditions: Rattus norvegicus, H9c2, Myocardium;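 note: confirmatory concentration-response retest of ultra-high-throughput screening hits for modulation of myocardial damage; cell death induced by hydrogen peroxide oxidative stress; compound pretreatment for 60 min then peroxide exposure for 2 h; potency is for protecting the cells against peroxide damage rather than for killing them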
Vero [19] = assay: cells; type: functional, cell-based; conditions: Chlorocebus sabaeus

T1 sequence (P11940 whole entry): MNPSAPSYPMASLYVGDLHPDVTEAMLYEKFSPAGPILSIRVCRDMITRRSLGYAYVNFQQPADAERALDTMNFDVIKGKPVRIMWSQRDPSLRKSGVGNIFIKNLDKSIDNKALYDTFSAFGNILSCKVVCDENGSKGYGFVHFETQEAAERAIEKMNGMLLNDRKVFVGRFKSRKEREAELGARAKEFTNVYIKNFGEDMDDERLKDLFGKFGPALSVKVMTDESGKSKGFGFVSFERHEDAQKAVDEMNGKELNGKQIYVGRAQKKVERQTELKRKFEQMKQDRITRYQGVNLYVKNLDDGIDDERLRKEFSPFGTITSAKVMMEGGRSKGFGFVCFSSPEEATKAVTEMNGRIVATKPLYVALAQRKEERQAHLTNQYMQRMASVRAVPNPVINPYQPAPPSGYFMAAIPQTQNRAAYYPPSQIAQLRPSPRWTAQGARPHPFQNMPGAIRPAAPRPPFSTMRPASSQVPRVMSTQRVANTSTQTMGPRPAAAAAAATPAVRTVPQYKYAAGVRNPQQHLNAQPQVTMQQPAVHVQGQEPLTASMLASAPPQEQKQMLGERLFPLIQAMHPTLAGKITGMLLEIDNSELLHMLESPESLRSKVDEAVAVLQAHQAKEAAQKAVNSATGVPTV
T9 sequence (P08183 whole entry): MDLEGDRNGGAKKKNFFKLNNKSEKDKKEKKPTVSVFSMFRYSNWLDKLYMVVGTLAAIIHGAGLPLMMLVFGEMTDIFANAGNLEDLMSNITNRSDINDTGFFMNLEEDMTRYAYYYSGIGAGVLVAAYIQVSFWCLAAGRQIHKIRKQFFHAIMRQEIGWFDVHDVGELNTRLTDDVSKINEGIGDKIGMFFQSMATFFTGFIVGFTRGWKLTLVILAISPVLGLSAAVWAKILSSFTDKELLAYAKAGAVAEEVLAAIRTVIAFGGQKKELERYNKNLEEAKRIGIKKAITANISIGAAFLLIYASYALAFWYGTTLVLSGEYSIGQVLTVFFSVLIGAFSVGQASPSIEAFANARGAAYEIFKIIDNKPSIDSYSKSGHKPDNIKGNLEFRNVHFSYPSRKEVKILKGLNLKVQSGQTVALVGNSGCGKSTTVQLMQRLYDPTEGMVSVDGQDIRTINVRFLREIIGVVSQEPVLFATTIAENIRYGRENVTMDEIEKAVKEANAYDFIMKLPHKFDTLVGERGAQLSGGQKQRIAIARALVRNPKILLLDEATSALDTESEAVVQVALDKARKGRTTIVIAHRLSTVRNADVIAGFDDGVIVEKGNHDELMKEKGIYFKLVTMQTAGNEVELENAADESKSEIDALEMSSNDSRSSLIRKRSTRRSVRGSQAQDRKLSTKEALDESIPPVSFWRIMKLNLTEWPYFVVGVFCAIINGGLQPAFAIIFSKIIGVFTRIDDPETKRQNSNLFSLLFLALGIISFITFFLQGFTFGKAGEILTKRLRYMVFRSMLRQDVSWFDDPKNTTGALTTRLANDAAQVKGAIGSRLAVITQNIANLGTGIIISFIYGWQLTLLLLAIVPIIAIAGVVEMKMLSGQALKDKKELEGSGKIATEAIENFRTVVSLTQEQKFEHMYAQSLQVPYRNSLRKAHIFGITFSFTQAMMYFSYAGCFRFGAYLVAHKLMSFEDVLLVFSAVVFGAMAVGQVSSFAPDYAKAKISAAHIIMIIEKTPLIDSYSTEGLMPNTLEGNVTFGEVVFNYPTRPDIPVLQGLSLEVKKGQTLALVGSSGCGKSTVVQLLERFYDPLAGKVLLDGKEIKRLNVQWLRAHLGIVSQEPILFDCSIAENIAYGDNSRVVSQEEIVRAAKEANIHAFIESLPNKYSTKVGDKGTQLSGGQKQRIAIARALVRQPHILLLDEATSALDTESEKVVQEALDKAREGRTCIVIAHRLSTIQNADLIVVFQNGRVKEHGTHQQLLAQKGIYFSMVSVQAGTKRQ
T8 sequence (P54149 whole entry): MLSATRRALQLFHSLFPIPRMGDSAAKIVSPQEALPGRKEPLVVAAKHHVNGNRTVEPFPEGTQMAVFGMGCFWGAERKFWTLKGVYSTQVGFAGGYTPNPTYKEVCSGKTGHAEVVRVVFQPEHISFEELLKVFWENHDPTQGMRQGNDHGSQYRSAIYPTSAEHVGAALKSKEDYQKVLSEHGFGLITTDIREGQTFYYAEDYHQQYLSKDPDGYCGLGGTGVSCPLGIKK
Chain of Steroidogenic factor 1 (Q13285 whole entry): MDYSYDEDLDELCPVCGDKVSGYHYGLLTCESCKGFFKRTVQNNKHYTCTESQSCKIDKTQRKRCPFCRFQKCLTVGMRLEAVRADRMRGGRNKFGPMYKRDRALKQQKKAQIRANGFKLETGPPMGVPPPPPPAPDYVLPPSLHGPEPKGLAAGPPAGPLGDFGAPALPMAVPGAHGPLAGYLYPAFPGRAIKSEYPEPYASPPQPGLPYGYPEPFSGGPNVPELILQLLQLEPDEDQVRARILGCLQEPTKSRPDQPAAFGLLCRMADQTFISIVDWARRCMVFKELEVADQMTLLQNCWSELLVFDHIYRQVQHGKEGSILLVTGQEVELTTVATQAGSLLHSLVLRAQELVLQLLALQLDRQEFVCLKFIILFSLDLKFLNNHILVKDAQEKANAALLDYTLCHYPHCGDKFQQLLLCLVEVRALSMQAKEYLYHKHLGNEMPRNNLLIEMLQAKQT
Chain of Caspase-8 (Q14790 217-374 limits assumed): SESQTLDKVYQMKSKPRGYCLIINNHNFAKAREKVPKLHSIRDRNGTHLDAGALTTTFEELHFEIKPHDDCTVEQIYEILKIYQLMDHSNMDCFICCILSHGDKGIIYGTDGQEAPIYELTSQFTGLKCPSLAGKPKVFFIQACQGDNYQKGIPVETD
Chain of Caspase-8 (Q14790 385-479 limits assumed): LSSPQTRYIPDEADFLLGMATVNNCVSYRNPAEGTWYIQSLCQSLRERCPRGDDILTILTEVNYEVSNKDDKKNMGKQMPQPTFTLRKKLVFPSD
Chain of Nuclear receptor subfamily 5 group A member 2 (O00482 whole entry): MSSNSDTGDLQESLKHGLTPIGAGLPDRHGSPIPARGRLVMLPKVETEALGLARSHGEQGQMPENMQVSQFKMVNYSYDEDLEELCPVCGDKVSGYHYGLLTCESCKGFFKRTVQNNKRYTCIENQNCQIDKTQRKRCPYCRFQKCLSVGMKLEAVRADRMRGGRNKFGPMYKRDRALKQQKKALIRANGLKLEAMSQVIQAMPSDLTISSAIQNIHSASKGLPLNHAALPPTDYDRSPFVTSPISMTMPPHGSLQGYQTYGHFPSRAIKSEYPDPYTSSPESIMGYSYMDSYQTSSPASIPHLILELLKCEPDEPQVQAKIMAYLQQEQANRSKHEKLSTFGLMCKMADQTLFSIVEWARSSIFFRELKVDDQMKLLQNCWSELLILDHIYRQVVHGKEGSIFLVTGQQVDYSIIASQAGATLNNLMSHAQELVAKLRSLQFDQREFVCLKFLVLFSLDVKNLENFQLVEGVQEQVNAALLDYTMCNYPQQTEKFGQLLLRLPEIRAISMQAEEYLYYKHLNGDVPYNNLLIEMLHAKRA
Chain of Aryl hydrocarbon receptor (P35869 whole entry): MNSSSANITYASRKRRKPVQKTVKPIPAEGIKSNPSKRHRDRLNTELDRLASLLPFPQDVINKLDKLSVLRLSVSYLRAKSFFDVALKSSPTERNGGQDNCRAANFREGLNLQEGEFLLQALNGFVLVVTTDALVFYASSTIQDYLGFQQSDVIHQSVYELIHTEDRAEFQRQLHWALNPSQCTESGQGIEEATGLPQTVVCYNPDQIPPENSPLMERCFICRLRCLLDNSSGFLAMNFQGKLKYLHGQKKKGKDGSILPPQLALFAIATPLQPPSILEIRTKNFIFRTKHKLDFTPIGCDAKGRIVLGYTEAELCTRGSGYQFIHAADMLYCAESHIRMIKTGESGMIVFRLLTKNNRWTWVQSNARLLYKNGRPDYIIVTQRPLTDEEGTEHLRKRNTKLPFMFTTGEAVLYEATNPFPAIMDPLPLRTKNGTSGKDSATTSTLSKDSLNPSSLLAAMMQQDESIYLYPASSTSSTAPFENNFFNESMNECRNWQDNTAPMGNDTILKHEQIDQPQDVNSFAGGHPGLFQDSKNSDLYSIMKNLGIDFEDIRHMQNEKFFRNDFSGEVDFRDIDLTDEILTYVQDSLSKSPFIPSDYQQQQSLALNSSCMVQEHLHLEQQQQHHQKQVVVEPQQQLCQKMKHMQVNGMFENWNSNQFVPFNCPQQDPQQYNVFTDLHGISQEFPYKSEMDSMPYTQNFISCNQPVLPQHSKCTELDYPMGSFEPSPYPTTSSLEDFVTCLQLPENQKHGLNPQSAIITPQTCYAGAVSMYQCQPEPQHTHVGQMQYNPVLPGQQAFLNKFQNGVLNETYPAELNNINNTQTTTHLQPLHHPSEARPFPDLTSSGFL
Chain of Caspase-9 (P55211 1-315 limits assumed): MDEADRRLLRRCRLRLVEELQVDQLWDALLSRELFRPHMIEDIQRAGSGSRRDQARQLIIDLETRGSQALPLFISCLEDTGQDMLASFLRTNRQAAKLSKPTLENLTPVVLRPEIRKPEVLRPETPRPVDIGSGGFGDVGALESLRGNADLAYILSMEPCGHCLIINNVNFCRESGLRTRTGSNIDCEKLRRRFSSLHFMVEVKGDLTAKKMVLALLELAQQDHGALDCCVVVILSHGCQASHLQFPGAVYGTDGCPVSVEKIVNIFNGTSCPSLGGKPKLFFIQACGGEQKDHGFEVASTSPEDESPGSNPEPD
Chain of Caspase-9 (P55211 331-416 limits assumed): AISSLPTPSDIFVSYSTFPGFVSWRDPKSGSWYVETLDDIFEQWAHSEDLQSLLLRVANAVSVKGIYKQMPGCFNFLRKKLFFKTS

In the case of COc1ccc(C2=CC(=O)N(Nc3ccccc3)C2=O)cc1, the IC50 [1] is reported as 4.21 µM (active).
In the case of O=C(CSc1nnc(CNC(=O)c2ccccc2F)o1)Nc1ccc2c(c1)OCCO2, the IC50 [2] is reported as > 66 µM (inactive), the IC50 [3] is reported as 17.6 µM (inactive) and the IC50 [4] is reported as > 66 µM (inactive). For the same molecule, the IC50 [5] was 35.9 µM (inactive) and the IC50 (Steroidogenic factor 1) was 1.56 µM (active).
In the case of COc1ccccc1NC(=O)COC(=O)c1ccc([N+](=O)[O-])s1, the IC50 [6] is reported as 7.35 µM (active), the AC50 (Caspase-7) is reported as 16.4 µM (active) and the IC50 [7] is reported as 3.83 µM (active). For the same molecule, the AC50 (Caspase-6) was 1.95 µM (active), the AC50 [8] was 6.12 µM (active) and the IC50 [9] was 4.94 µM (active). The IC50 (Caspase-3) was 11.5 µM (active), the AC50 (Caspase-9) was 23.7 µM (active) and the EC50 [10] was 39.4 µM (inactive). For the same molecule, the AC50 (Caspase-8) was 22 µM (active).
For O=C(c1ccco1)N1CCN(c2cc(-c3ccccc3)nc3cc(-c4ccc(F)cc4)nn23)CC1, the EC50 [11] was 1.05 µM (active) and the EC50 [12] was 3.4 µM (active).
For Cc1ccccc1/C=N/n1c(S)nnc1C1CCCCC1, the IC50 [13] was 155 µM (inactive).
With COc1cc(/C=C/C(=O)CC(=O)/C=C/c2ccc(O)c(OC)c2)ccc1O [CURCUMIN] the EC50 [14] was > 100 µM (active), the CC50 (Vero [15]) was 19.5 µM (active) and the CC50 (Vero [15]; Chlorocebus sabaeus, Vero) was 19.9 µM (active). The EC50 [16] was 6.97 µM (active), the EC50 [17] was 13.1 µM (active) and the AC50 [18] was 56.2 µM (inconclusive). For the same molecule, the IC50 (H9c2) was > 79 µM (inactive) and the IC50 (Vero [19]) was > 25 µM (active).
